The results in this text go back to patent publication US8969361B2, “Cyclopropanecarboxylate esters of purine analogues” (Annji Pharmaceutical Co., Ltd., priority 2012, dated 2015).

Molecules are shown by their SMILES. Converted amounts (≈) assume the structure as drawn. Where two headings read alike, the source gives them in different places.

Series [1] in a line: Aqueous solubility (HPLC). The following applies: thermodynamic from solid, water. The class given is physicochemical. Here is the method:
The solubility experiment procedure was modified due to chemical stabilities. Briefly, an excess of a test compound was added 0.5 mL of water in an one mL of vial, pre-equilibrated, and then sonicated at 23° C. for 3 min. Aliquots were filtered and analyzed for drug contents. The concentration of each compound was determined by HPCL, at λ=254 nm, 23° C. The aliquot containing the analyte was diluted 100× due to the detection limit of the instrument.

The nature of series [2]: Hydrolytic stability in buffer solutions of various pH (HPLC). The class given is physicochemical. The following applies: phosphate-buffered solution, read-out: half life value (T1/2), hydrolytic stability (converted). An excerpt: Hydrochloric acid of 0.1 N was used for pH 1 solution. Samples were repeatedly, manually injected onto HPLC at specific time intervals at room temperature. The peak areas of the compounds were monitored by UV detection. […] The “half life value, T1/2,” means the time required for one-half of the total amount of a compound in a solution to be degraded by hydrolysis processes when the rate of removal is nearly exponential. […] A first order calculation was used to determine the rate constant for each buffer on the loss of peak area over time.

For series [3], the system named is Vero cells. Briefly: Toxicity to Vero cells. The class given is cell-based.
The subject of series [4] is HSV-1. Briefly: Herpetic keratitis in mice with cornea inoculated by HSV-1 (eye-drops). The format is in vivo, Balb/c mice. The note with it: eye-drops 0.34% or 0.2% w/v in saline, 3 times a day; for corneal cloudiness, vehicle-treated group versus treated group: day-14; for severity of ocular disease symptoms (corneal clouding, stromal keratitis, blepharitis): day-21. Here is the method:
The effect of Compound 3 on herpetic keratitis was investigated in mice with cornea inoculated by HSV-1. Balb/c mice (eight weeks old, 25 g body weight) were anesthetized with isoflurane, and epithelium of both right and left corneas lightly scratched in a cross-hatch pattern (four horizontal and four vertical scratches) with a 26-gauge needle under a microscope. The mouse cornea was inoculated with 5 μL of HSV-1 suspension containing 2.5×10^6 plaque-forming units (PFU), or saline for control. After the inoculations, mice were assigned randomly to treatment groups (4˜5 mice per group), with both eyes treated with Compound 3 or ganciclovir or vehicle (saline) after lightly anaesthetized. Eight hours after HSV-1 inoculation, 1 drop (10 μl) of 0.34% or 0.2% w/v solution of compound 3 or ganciclovir in saline with anti-fungi agent (0.05 w/v amphotericin-B) was applied to each eye daily, 3 times a day. The keratitis was graded, recorded and scored daily for 21 days, and the eyes were examined with a microscopic camera at frequent intervals.

Series [5] deals with HSV-1. Briefly: Attenuation of HSV-1 induced cytopathic effects on Vero cells. The class given is cell-based. The following applies: HSV-1 at 10^-4 titration, treated 4 days, different concentrations. Here is the method:
Human epithelial (HEp-2) cells were cultured in MEM supplemented with 10% fetal calf serum and 10% heat activated newborn calf serum. Vero cells were cultured in RPMI-1640 and 10% heat activated newborn calf serum. Penicillin (1000 I.U./ml), streptomycin (100 μg/ml), and bicarbonate buffer were present in the medium, and cells were maintained at 37° C., 5% CO2, humidified atmosphere, and subcultured 2˜3 times a week.
The antiviral activity of Compound 3 was determined by evaluating the attenuation in HSV-1 induced cytopathic effects on Vero cells. Vero cells (10,000 cells/well) in a 96-well culture plate were infected with an increasingly diluted HSV-1 virus solution (10^−3 to 10^−5) in L15 medium. After 2 h incubation the unadsorbed virus was removed, the cell monolayer was washed with PBS. […] Every 24 hr the cytopathic effects were observed and photographed under microscope (FIG. 2). Anti-HSV-1 activity was determined by inhibition of cytopathic effect as compared with control. The cytopathic effects effects after HSV-1 propagation HSV-1 between Vero cells were quantified in terms of 50% tissue culture infective dose (TCID50, which was used to determine the infectious titer of HSV-1 which can cause cytopathic effects in culture).
For orientation: Cytopathic effects are the visible damage that an infection or toxin causes in cultured cells.

[6] abbreviates: 23° C., sonicated 3 min, read-out: aqueous solubility.

For `CNC1(C(=O)OCC(CO)OCn2cnc3c(=O)[nH]c(N)nc32)CC1` (stereo not drawn) [Compound 4, 1-Methylamino-cyclopropanecarboxylic acid 2-(2-amino-6-oxo-6-dihydro-purin-9-ylmethoxy)-3-hydroxypropyl ester], the solubility at 3 min in series [1] (setting [6]) came to 227 mg/mL (≈ 644 mM).
The compound `CC1(C)CC1(N)C(=O)OCC(CO)OCn1cnc2c(=O)[nH]c(N)nc21` (stereo not drawn) [Compound 7, 1-Amino-2,2-dimethyl-cyclopropanecarboxylic acid 2-(2-amino-6-oxo-1,6-dihydro-purin-9-ylmethoxy)-3-hydroxypropyl ester] had a melting point above 300 °C. The solubility at 3 min in series [1] (setting [6]) turned out to be 213 mg/mL (≈ 581 mM). Further, the half-life at 1 mg/mL in series [2] (pH 7.4, 40° C.) was 68 h.
As to `CC1CC1(N)C(=O)OCC(CO)OCn1cnc2c(=O)[nH]c(N)nc21` (stereo not drawn) [Compound 8, 1-Amino-2-methyl-cyclopropanecarboxylic acid 2-(2-amino-6-oxo-1,6-dihydro-purin-9-ylmethoxy)-3-hydroxypropyl ester], the half-life at 1 mg/mL in series [2] (pH 7.4, 40° C.) was 58 h.
`Nc1nc(O)c2ncn(COC(CO)CO)c2n1` [ganciclovir, reference compound] displayed a solubility at 3 min in series [1] (23 °C) of 2.6 mg/mL (≈ 10.2 mM). The “toxicity to Vero cells” value in series [3] (concentrations used in the antiviral test) was “nontoxic to Vero cells”. For the same compound, in series [4], the “corneal cloudiness, vehicle-treated group versus treated group” value is “much more significant”; the “severity of ocular disease symptoms (corneal clouding, stromal keratitis, blepharitis)” value is “reduced the severities in stromal keratitia and corneal clouding dramatically, but blephartitis still existed”.
In the case of `Nc1nc2c(ncn2COC(CO)COC(=O)C2(N)CC2c2ccccc2)c(=O)[nH]1` (stereo not drawn) [Compound 6, 1-Amino-2-phenyl-cyclopropanecarboxylic acid 2-(2-amino-6-oxo-1,6-dihydro-purin-9-ylmethoxy)-3-hydroxypropyl ester], the solubility at 3 min in series [1] (setting [6]) is 170 mg/mL (≈ 410 mM). Further, the half-life at 1 mg/mL in series [2] (pH 7.4, 40° C.) was 75 h.
On to `Nc1nc2c(ncn2COC(CO)COC(=O)C2(N)CC2c2ccco2)c(=O)[nH]1` (stereo not drawn) [Compound 10, 1-Amino-2-furan-2-yl-cyclopropanecarboxylic acid 2-(2-amino-6-oxo-1,6-dihydro-purin-9-ylmethoxy)-3-hydroxypropyl ester], for which, in series [1] (setting [6]), the solubility at 3 min turned out to be 260 mg/mL (≈ 643 mM). The half-life at 1 mg/mL in series [2] (pH 7.4, 40° C.) is 29 h.
The corresponding values for `Nc1nc2c(ncn2COC(CO)COC(=O)C2(N)CC2c2ccccn2)c(=O)[nH]1` (stereo not drawn) [Compound 11, 1-Amino-2-pyridin-2-yl-cyclopropanecarboxylic acid 2-(2-amino-6-oxo-1,6-dihydro-purin-9-ylmethoxy)-3-hydroxypropyl ester] are 253 mg/mL (≈ 609 mM) and 43 h.
`Nc1nc2c(ncn2COC(CO)COC(=O)C2(N)CC2c2ccc(Br)cc2)c(=O)[nH]1` (stereo not drawn) [Compound 5, 1-Amino-2-(4-bromo-phenyl)-cyclopropanecarboxylic acid 2-(2-amino-6-oxo-1,6-dihydro-purin-9-ylmethoxy)-3-hydroxypropyl ester]: the solubility at 3 min in series [1] (setting [6]) was found to be 155 mg/mL (≈ 314 mM). For the same compound, the half-life at 1 mg/mL in series [2] (pH 7.4, 40° C.) was 85 h.
In the case of `Nc1nc2c(ncn2COC(CO)COC(=O)C2(N)CC2)c(=O)[nH]1` (stereo not drawn) [Compound 3, 1-amino-cyclopropanecarboxylic acid 2-(2-amino-6-oxo-1,6-dihydro-purin-9-ylmethoxy)-3-hydroxypropyl ester], the melting point is above 300 °C. The solubility at 3 min in series [1] (setting [6]) was 180 mg/mL (≈ 532 mM). Moreover, the “cytopathogenic effects of HSV-1 on Vero cells (morphological evaluation)” value in series [5] is reported as “reduced the cytopathogenic effects of HSV-1 on Vero cells in a concentration-dependent manner”. Also, the half-life at 1 mg/mL in series [2] (pH 7.4, 40° C.) is 53 h. For the same compound, the half-life at 1 mg/mL in series [2] (acidic solution (pH 4), 40° C.) is above 300 h. Besides, the “toxicity to Vero cells” value in series [3] was “nontoxic to Vero cells”. In series [4], the “corneal cloudiness, vehicle-treated group versus treated group” value was “much more significant” and the “severity of ocular disease symptoms (corneal clouding, stromal keratitis, blepharitis)” value is given as “eliminated the extra-ocular keratitis morphologies almost entirely”.
For the compound `Nc1nc2c(ncn2COC(CO)COC(=O)C2(N)CC2C(F)(F)F)c(=O)[nH]1` (stereo not drawn) [Compound 9, 1-Amino-2-trifluoromethyl-cyclopropanecarboxylic acid 2-(2-amino-6-oxo-1,6-dihydro-purin-9-ylmethoxy)-3-hydroxypropyl ester], in series [1] (setting [6]), the solubility at 3 min was 261 mg/mL (≈ 642 mM). For the same compound, the half-life at 1 mg/mL in series [2] (pH 7.4, 40° C.) was 33 h.

For orientation: solubility means the dissolved amount per volume that the medium holds. The term melting point denotes the temperature of the solid-liquid transition.
